Assay results taken from the NIST ThermoML archive (doi:10.1016/j.jct.2019.02.028).

Assay: xn = mol fraction of the nth substance listed
Details: Gas, Burnett expansion method

C=C(F)C(F)(F)F [2,3,3,3-tetrafluoro-1-propene] + FCF
Details | mass density [kg/m3]
298.75 K, 572.1 kPa, x2 = 0.119 | 28.04
298.79 K, 1055.5 kPa, x2 = 0.698 | 36.11
298.8 K, 475.09 kPa, x2 = 0.449 | 18
298.8 K, 476.95 kPa, x2 = 0.259 | 20.72
298.8 K, 518.4 kPa, x2 = 0.698 | 16.01
298.8 K, 684.19 kPa, x2 = 0.449 | 27.04
298.82 K, 748.46 kPa, x2 = 0.698 | 24.04
298.86 K, 487.12 kPa, x2 = 0.874 | 12.55
298.86 K, 1393.8 kPa, x2 = 0.874 | 42.51
298.87 K, 1004.6 kPa, x2 = 0.874 | 28.3
298.93 K, 704.35 kPa, x2 = 0.874 | 18.84
308.66 K, 1524.8 kPa, x2 = 0.698 | 54.21
308.68 K, 1108.2 kPa, x2 = 0.698 | 36.09
308.69 K, 597.54 kPa, x2 = 0.119 | 28.02
308.7 K, 493.92 kPa, x2 = 0.449 | 17.99
308.7 K, 496.45 kPa, x2 = 0.259 | 20.72
308.71 K, 538.99 kPa, x2 = 0.698 | 16
308.71 K, 714.14 kPa, x2 = 0.449 | 27.02
308.71 K, 842.28 kPa, x2 = 0.119 | 42.09
308.72 K, 712.34 kPa, x2 = 0.259 | 31.11
308.72 K, 997.47 kPa, x2 = 0.259 | 46.73
308.73 K, 780.62 kPa, x2 = 0.698 | 24.03
308.74 K, 1976.1 kPa, x2 = 0.874 | 63.81
308.76 K, 1011.1 kPa, x2 = 0.449 | 40.58
308.77 K, 1470.2 kPa, x2 = 0.874 | 42.48
308.78 K, 1051.3 kPa, x2 = 0.874 | 28.28
308.79 K, 506.01 kPa, x2 = 0.874 | 12.54
308.82 K, 733.43 kPa, x2 = 0.874 | 18.83
313.6 K, 1566.5 kPa, x2 = 0.698 | 54.19
313.64 K, 503.35 kPa, x2 = 0.449 | 17.98
313.64 K, 1134 kPa, x2 = 0.698 | 36.08
313.65 K, 610.01 kPa, x2 = 0.119 | 28.01
313.66 K, 506.36 kPa, x2 = 0.259 | 20.71
313.66 K, 728.88 kPa, x2 = 0.449 | 27.01
313.67 K, 796.71 kPa, x2 = 0.698 | 24.02
313.68 K, 549.32 kPa, x2 = 0.698 | 15.99
313.68 K, 727.83 kPa, x2 = 0.259 | 31.11
313.68 K, 862.42 kPa, x2 = 0.119 | 42.07
313.68 K, 1021.8 kPa, x2 = 0.259 | 46.73
313.7 K, 1507.4 kPa, x2 = 0.874 | 42.47
313.7 K, 2038.5 kPa, x2 = 0.874 | 63.79
313.72 K, 1034.8 kPa, x2 = 0.449 | 40.57
313.72 K, 1074 kPa, x2 = 0.874 | 28.28
313.74 K, 515.35 kPa, x2 = 0.874 | 12.53
313.79 K, 747.77 kPa, x2 = 0.874 | 18.83
318.62 K, 1609.8 kPa, x2 = 0.698 | 54.18
318.68 K, 1159.3 kPa, x2 = 0.698 | 36.07
318.7 K, 2100 kPa, x2 = 0.874 | 63.77
318.72 K, 512.99 kPa, x2 = 0.449 | 17.98
318.72 K, 882.63 kPa, x2 = 0.119 | 42.06
318.72 K, 1210.1 kPa, x2 = 0.119 | 63.25
318.73 K, 516.26 kPa, x2 = 0.259 | 20.71
318.73 K, 743.73 kPa, x2 = 0.449 | 27
318.73 K, 813.03 kPa, x2 = 0.698 | 24.02
318.73 K, 1463.2 kPa, x2 = 0.449 | 61.04
318.74 K, 559.65 kPa, x2 = 0.698 | 15.99
318.74 K, 743.48 kPa, x2 = 0.259 | 31.1
318.74 K, 1046.5 kPa, x2 = 0.259 | 46.72
318.74 K, 1058.5 kPa, x2 = 0.449 | 40.56
318.74 K, 1097.2 kPa, x2 = 0.874 | 28.27
318.74 K, 1544.9 kPa, x2 = 0.874 | 42.46
318.75 K, 622.85 kPa, x2 = 0.119 | 28
318.77 K, 762.25 kPa, x2 = 0.874 | 18.82
318.78 K, 525.03 kPa, x2 = 0.874 | 12.53
323.56 K, 1650.9 kPa, x2 = 0.698 | 54.16
323.62 K, 1184.6 kPa, x2 = 0.698 | 36.06
323.62 K, 2161.1 kPa, x2 = 0.874 | 63.75
323.67 K, 522.17 kPa, x2 = 0.449 | 17.97
323.67 K, 902.39 kPa, x2 = 0.119 | 42.05
323.67 K, 2803.5 kPa, x2 = 0.874 | 96.27
323.68 K, 525.72 kPa, x2 = 0.259 | 20.71
323.68 K, 569.78 kPa, x2 = 0.698 | 15.98
323.68 K, 758.4 kPa, x2 = 0.449 | 27
323.68 K, 828.96 kPa, x2 = 0.698 | 24.01
323.68 K, 1081.3 kPa, x2 = 0.449 | 40.55
323.69 K, 533.88 kPa, x2 = 0.874 | 12.53
323.69 K, 758.79 kPa, x2 = 0.259 | 31.1
323.69 K, 1070.4 kPa, x2 = 0.259 | 46.71
323.69 K, 1460 kPa, x2 = 0.259 | 70.1
323.69 K, 1502 kPa, x2 = 0.449 | 61.01
323.69 K, 2207.6 kPa, x2 = 0.698 | 81.35
323.7 K, 635.26 kPa, x2 = 0.119 | 27.99
323.7 K, 1243.5 kPa, x2 = 0.119 | 63.23
323.7 K, 1581.8 kPa, x2 = 0.874 | 42.45
323.71 K, 776.56 kPa, x2 = 0.874 | 18.81
323.73 K, 1120.2 kPa, x2 = 0.874 | 28.26
328.55 K, 1691.6 kPa, x2 = 0.698 | 54.15
328.58 K, 1209.7 kPa, x2 = 0.698 | 36.05
328.6 K, 543.23 kPa, x2 = 0.874 | 12.52
328.61 K, 531.32 kPa, x2 = 0.449 | 17.97
328.61 K, 772.98 kPa, x2 = 0.449 | 26.99
328.61 K, 1275.3 kPa, x2 = 0.119 | 63.21
328.62 K, 579.61 kPa, x2 = 0.698 | 15.98
328.62 K, 2220.5 kPa, x2 = 0.874 | 63.73
328.62 K, 2904.2 kPa, x2 = 0.874 | 96.19
328.63 K, 535.28 kPa, x2 = 0.259 | 20.7
328.63 K, 844.62 kPa, x2 = 0.698 | 24
328.63 K, 922.19 kPa, x2 = 0.119 | 42.04
328.63 K, 1094.6 kPa, x2 = 0.259 | 46.71
328.63 K, 1105.1 kPa, x2 = 0.449 | 40.54
328.63 K, 1499.1 kPa, x2 = 0.259 | 70.09
328.64 K, 647.48 kPa, x2 = 0.119 | 27.99
328.64 K, 773.73 kPa, x2 = 0.259 | 31.1
328.64 K, 1540.2 kPa, x2 = 0.449 | 60.98
328.64 K, 2275.8 kPa, x2 = 0.698 | 81.33
328.65 K, 1617.6 kPa, x2 = 0.874 | 42.43
328.66 K, 790.86 kPa, x2 = 0.874 | 18.81
328.67 K, 1142.6 kPa, x2 = 0.874 | 28.25
333.46 K, 1731.9 kPa, x2 = 0.698 | 54.13
333.56 K, 540.51 kPa, x2 = 0.449 | 17.96
333.57 K, 941.58 kPa, x2 = 0.119 | 42.02
333.57 K, 1235.3 kPa, x2 = 0.698 | 36.04
333.57 K, 2278.9 kPa, x2 = 0.874 | 63.71
333.57 K, 2342.7 kPa, x2 = 0.698 | 81.3
333.58 K, 544.62 kPa, x2 = 0.259 | 20.7
333.58 K, 1578 kPa, x2 = 0.449 | 60.96
333.58 K, 1734.6 kPa, x2 = 0.119 | 94.99
333.58 K, 2115 kPa, x2 = 0.449 | 91.6
333.58 K, 3002.9 kPa, x2 = 0.874 | 96.12
333.59 K, 659.59 kPa, x2 = 0.119 | 27.98
333.59 K, 787.46 kPa, x2 = 0.449 | 26.98
333.59 K, 788.83 kPa, x2 = 0.259 | 31.09
